Measurements as given in patent publication US10202391B2, “Chemical compounds” (AstraZeneca AB, priority 2015, dated 2019).

Legend:
[1] = system: phospho-p90RSK in A375 cell line; assay: A375 Phospho-p90RSK Cellular Assay; type: cell-based, human; settings: Homo sapiens, A-375, 2 h, A375 cells, 2 hours incubation
How it was run: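 A375 cells (2400/well, DMEM/10% FCS) seeded overnight, then dosed over a 12-point range from 30 μM down to 0.00003 μM (0.3% DMSO) for 2 h at 37 °C. Fixed cells were immunostained for phospho-p90RSK Thr359 with Hoechst nuclear counterstain and read by high-content imaging; IC50s fitted from dose-response.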

[2] = system: panel of cancer cell lines with KRAS mutations; assay: Cell growth inhibition, monotherapy, panel of KRAS mutant lines; type: cell-based, human; settings: A549, H2122, H2009, Calu6; 3 days of treatment
Source text: A549 is a human non small cell lung cancer line carrying an oncogenic mutation in the KRAS gene (G12S). H2122 is a human non small cell lung cancer line carrying an oncogenic mutation in the KRAS gene (G12C). H2009 is a human non small cell lung cancer line carrying an oncogenic mutation in the KRAS gene (G12A). Calu6 is a human non small cell lung cancer line carrying mutation in the KRAS ([…]) gene. All cell lines were obtained from the American Type Culture Collection.
All cell line were maintained at 37° C. and 5% CO2 in a humidified atmosphere and grown in RPMI-1640 growth media supplemented with 10% FBS and 2 mmol/L glutamine. […]
Cells were seeded in 384-well black, clear bottomed plates (Greiner Bio-One, Stonehouse, UK), cultured for 18-24 hours and treated with increasing concentrations of Example 18 and selumetinib (0-10 μmol/L) in a 6×6 dosing matrix. […] After 3 days of treatment, live cell number was determined using a Sytox Green endpoint as described previously (“Davies B R, Greenwood H, Dudley P, et al: Preclinical pharmacology of AZD5363, an inhibitor of AKT: Pharmacodynamics, antitumor activity, and correlation of monotherapy activity with genetic background. Mol Cancer Ther 11(4):873-87, 2012”). […] Cells were then permeabilised by the overnight addition of saponin (0.03% final concentration, diluted in TBS-EDTA buffer) and a total cell count measured. […]

IC50 [1]: 5.7 nM
SMILES: COC[C@H]1Cn2cc(-c3nc(Nc4ccnn4C)ncc3C)nc2C(=O)N1Cc1ccc(F)c(F)c1 [Example 18, (R)-7-(3,4-Difluorobenzyl)-6-(methoxymethyl)-2-(5-methyl-2-((1-methyl-1H-pyrazol-5-yl)amino)pyrimidin-4-yl)-6,7-dihydroimidazo[1,2-a]pyrazin-8(5H)-one]
cell growth inhibition as monotherapy [2]: can inhibit the growth of a panel of cancer cell lines with KRAS mutations as a monotherapy
